According to US5977133A, “Pyridone antibiotic with improved safety profile” (priority 1998, dated 1999):
In brackets after ≈: the same amount, converted by molar mass.

Experiments:
Assay type in all cases: cell-based
Klebsiella spp. = assay: In vitro MIC, agar dilution
S. aureus (CiproR) = assay: In vitro MIC, agar dilution; conditions: Staphylococcus aureus, S. aureus (CiproR), 25 isolates
P. aeruginosa (CiproS) = assay: In vitro MIC, agar dilution; conditions: Pseudomonas aeruginosa
E. faecium (CiproS) = assay: In vitro MIC, agar dilution; conditions: Enterococcus faecium, E. faecium (CiproS), 16 isolates
B. fragilis = assay: In vitro MIC, agar dilution; conditions: Bacteroides fragilis
Providencia spp. = assay: In vitro MIC, agar dilution
N. gonorrhoeae = assay: In vitro MIC, agar dilution; conditions: Neisseria gonorrhoeae
C. freundii = assay: In vitro MIC, agar dilution; conditions: Citrobacter freundii
S. aureus (CiproS) = assay: In vitro MIC, agar dilution; conditions: Staphylococcus aureus
M. avium = assay: In vitro MIC, agar dilution; conditions: Mycobacterium avium
Legionella spp. = assay: microbe, parasite or virus in culture; conditions: Legionella
E. coli = assay: In vitro MIC, agar dilution; conditions: Escherichia coli, 25 isolates
Outline: (§1)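 Agar dilution plates were inoculated with ~10^4 CFU per spot by replicator, using 1:100 dilutions (1:10 for slow growers) and incubated at 35–37 °C for 20–24 h. MIC is the lowest concentration giving no growth, where slight haze or sparse colonies count as none, judged against a compound-free BHI agar control.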

Salmonella spp. = assay: In vitro MIC, agar dilution; conditions: 23 isolates
Outline: as §1

P. mirabilis = assay: In vitro MIC, agar dilution; conditions: Proteus mirabilis
H. pylori = assay: In vitro MIC, agar dilution; conditions: Helicobacter pylori
P. aeruginosa (CiproR) = assay: In vitro MIC, agar dilution; conditions: Pseudomonas aeruginosa
Shigella spp. = assay: microbe, parasite or virus in culture; conditions: read-out: MIC Range
S. epidermidis (CiproR) = assay: In vitro MIC, agar dilution; conditions: Staphylococcus epidermidis, S. epidermidis (CiproR), 11 isolates
E. faecium (VanS) = assay: In vitro MIC, agar dilution; conditions: Enterococcus faecium
H. influenzae = assay: In vitro MIC, agar dilution; conditions: Haemophilus influenzae, H. influenzae, 18 isolates
M. pneumoniae = assay: In vitro MIC, agar dilution; conditions: Mycoplasmoides pneumoniae; M. pneumoniae, 7 isolates; read-out: MIC Range
S. epidermidis (CiproS) = assay: In vitro MIC, agar dilution; conditions: Staphylococcus epidermidis
S. pyogenes = assay: In vitro MIC, agar dilution; conditions: Streptococcus pyogenes
C. difficile = assay: In vitro MIC, agar dilution; conditions: Clostridioides difficile
Enterobacter spp. = assay: In vitro MIC, agar dilution; conditions: Enterobacter
S. pneumoniae (PenR) = assay: In vitro MIC, agar dilution; conditions: Streptococcus pneumoniae
S. pneumoniae (PenS) = assay: In vitro MIC, agar dilution; conditions: Streptococcus pneumoniae
S. pneumoniae (CiproR) = assay: In vitro MIC, agar dilution; conditions: Streptococcus pneumoniae; S. pneumoniae (CiproR), 3 isolates; read-out: MIC Range
E. faecium (CiproR) = assay: In vitro MIC, agar dilution; conditions: Enterococcus faecium; E. faecium (CiproR), 2 isolates; read-out: MIC Range

Compound: NC1CCN(c2c(F)cc3c(=O)c(C(=O)O)cn(C4CC4)c3c2Cl)C1 (stereo not drawn) [Clinafloxacin, clinafloxacin]
- MIC50 (Klebsiella spp.; Klebsiella): 0.03 µg/mL (≈ 0.082 µM)
- MIC90 (Klebsiella spp.; Klebsiella): 0.03 µg/mL (≈ 0.082 µM)
- MIC (Klebsiella spp.; Klebsiella spp., 29 isolates, read-out: MIC Range): 0.004 to 0.12 µg/mL (≈ 0.0109 to 0.328 µM)
- MIC50 (S. aureus (CiproR); read-out: MIC50): 0.5 µg/mL (≈ 1.37 µM)
- MIC90 (S. aureus (CiproR); read-out: MIC90): 1 µg/mL (≈ 2.73 µM)
- MIC (S. aureus (CiproR); read-out: MIC Range): 0.25 to 2 µg/mL (≈ 0.683 to 5.47 µM)
- MIC90 (P. aeruginosa (CiproS)): 0.5 µg/mL (≈ 1.37 µM)
- MIC50 (P. aeruginosa (CiproS); P. aeruginosa (CiproS), 24 isolates, read-out: MIC50): 0.12 µg/mL (≈ 0.328 µM)
- MIC (P. aeruginosa (CiproS); P. aeruginosa (CiproS), 24 isolates, read-out: MIC Range): 0.015 to 0.5 µg/mL (≈ 0.041 to 1.37 µM)
- MIC50 (E. faecium (CiproS); read-out: MIC50): 1 µg/mL (≈ 2.73 µM)
- MIC90 (E. faecium (CiproS); read-out: MIC90): 2 µg/mL (≈ 5.47 µM)
- MIC (E. faecium (CiproS); read-out: MIC Range): 0.5 to 8 µg/mL (≈ 1.37 to 21.9 µM)
- MIC90 (B. fragilis): 0.5 µg/mL (≈ 1.37 µM)
- MIC (B. fragilis; read-out: MIC Range): 0.06 to 0.5 µg/mL (≈ 0.164 to 1.37 µM)
- MIC50 (B. fragilis; B. fragilis, 18 isolates, read-out: MIC50): 0.25 µg/mL (≈ 0.683 µM)
- MIC90 (Providencia spp.; Providencia): 0.03 µg/mL (≈ 0.082 µM)
- MIC50 (Providencia spp.; Providencia spp., 28 isolates, read-out: MIC50): 0.015 µg/mL (≈ 0.041 µM)
- MIC (Providencia spp.; Providencia spp., 28 isolates, read-out: MIC Range): 0.008 to 0.12 µg/mL (≈ 0.0219 to 0.328 µM)
- MIC90 (N. gonorrhoeae): 0.015 µg/mL (≈ 0.041 µM)
- MIC50 (N. gonorrhoeae; N. gonorrhoeae, 12 isolates, read-out: MIC50): 0.004 µg/mL (≈ 0.0109 µM)
- MIC (N. gonorrhoeae; N. gonorrhoeae, 12 isolates, read-out: MIC Range): 0.004 to 0.015 µg/mL (≈ 0.0109 to 0.041 µM)
- MIC50 (C. freundii): 0.03 µg/mL (≈ 0.082 µM)
- MIC90 (C. freundii): 0.12 µg/mL (≈ 0.328 µM)
- MIC (C. freundii; read-out: MIC Range): 0.015 to 0.12 µg/mL (≈ 0.041 to 0.328 µM)
- MIC50 (S. aureus (CiproS)): 0.03 µg/mL (≈ 0.082 µM)
- MIC90 (S. aureus (CiproS)): 0.03 µg/mL (≈ 0.082 µM)
- MIC (S. aureus (CiproS); S. aureus (CiproS), 21 isolates, read-out: MIC Range): 0.015 to 0.03 µg/mL (≈ 0.041 to 0.082 µM)
- MIC90 (M. avium): 32 µg/mL (≈ 87.5 µM)
- MIC50 (M. avium; M. avium, 20 isolates, read-out: MIC50): 16 µg/mL (≈ 43.7 µM)
- MIC50 (Legionella spp.): 0.06 µg/mL (≈ 0.164 µM)
- MIC90 (Legionella spp.): 0.12 µg/mL (≈ 0.328 µM)
- MIC (Legionella spp.; read-out: MIC Range): 0.03 to 0.12 µg/mL (≈ 0.082 to 0.328 µM)
- MIC (E. coli): 0.008 to 0.03 µg/mL (≈ 0.0219 to 0.082 µM)
- MIC50 (E. coli; read-out: MIC50): 0.015 µg/mL (≈ 0.041 µM)
- MIC90 (E. coli; read-out: MIC90): 0.015 µg/mL (≈ 0.041 µM)
- MIC (Salmonella spp.): 0.004 to 0.25 µg/mL (≈ 0.0109 to 0.683 µM)
- MIC50 (Salmonella spp.; read-out: MIC50): 0.015 µg/mL (≈ 0.041 µM)
- MIC90 (Salmonella spp.; read-out: MIC90): 0.03 µg/mL (≈ 0.082 µM)
- MIC50 (P. mirabilis): 0.03 µg/mL (≈ 0.082 µM)
- MIC90 (P. mirabilis): 0.06 µg/mL (≈ 0.164 µM)
- MIC (P. mirabilis; P. mirabilis, 20 isolates, read-out: MIC Range): 0.03 to 0.06 µg/mL (≈ 0.082 to 0.164 µM)
- MIC90 (H. pylori): 0.03 µg/mL (≈ 0.082 µM)
- MIC50 (H. pylori; H. pylori, 17 isolates, read-out: MIC50): 0.015 µg/mL (≈ 0.041 µM)
- MIC (H. pylori; H. pylori, 17 isolates, read-out: MIC Range): 0.008 to 0.03 µg/mL (≈ 0.0219 to 0.082 µM)
- MIC (P. aeruginosa (CiproR); read-out: MIC Range): 2 to 32 µg/mL (≈ 5.47 to 87.5 µM)
- MIC50 (P. aeruginosa (CiproR); P. aeruginosa (CiproR), 20 isolates, read-out: MIC50): 4 µg/mL (≈ 10.9 µM)
- MIC90 (P. aeruginosa (CiproR); P. aeruginosa (CiproR), 20 isolates, read-out: MIC90): 8 µg/mL (≈ 21.9 µM)
- MIC (Shigella spp.): 0.008 to 0.015 µg/mL (≈ 0.0219 to 0.041 µM)
- MIC50 (S. epidermidis (CiproR); read-out: MIC50): 0.5 µg/mL (≈ 1.37 µM)
- MIC90 (S. epidermidis (CiproR); read-out: MIC90): 1 µg/mL (≈ 2.73 µM)
- MIC (S. epidermidis (CiproR); read-out: MIC Range): 0.25 to 2 µg/mL (≈ 0.683 to 5.47 µM)
- MIC (E. faecium (VanS); read-out: MIC Range): 0.12 to 1 µg/mL (≈ 0.328 to 2.73 µM)
- MIC50 (E. faecium (VanS); E. faecium (VanS), 11 isolates, read-out: MIC50): 0.5 µg/mL (≈ 1.37 µM)
- MIC90 (E. faecium (VanS); E. faecium (VanS), 11 isolates, read-out: MIC90): 1 µg/mL (≈ 2.73 µM)
- MIC50 (H. influenzae; read-out: MIC50): 0.008 µg/mL (≈ 0.0219 µM)
- MIC90 (H. influenzae; read-out: MIC90): 0.008 µg/mL (≈ 0.0219 µM)
- MIC (H. influenzae; read-out: MIC Range): 0.004 to 0.008 µg/mL (≈ 0.0109 to 0.0219 µM)
- MIC (M. pneumoniae): 0.015 to 0.03 µg/mL (≈ 0.041 to 0.082 µM)
- MIC50 (S. epidermidis (CiproS)): 0.03 µg/mL (≈ 0.082 µM)
- MIC90 (S. epidermidis (CiproS)): 0.03 µg/mL (≈ 0.082 µM)
- MIC (S. epidermidis (CiproS); S. epidermidis (CiproS), 23 isolates, read-out: MIC Range): 0.015 to 0.06 µg/mL (≈ 0.041 to 0.164 µM)
- MIC90 (S. pyogenes): 0.06 µg/mL (≈ 0.164 µM)
- MIC (S. pyogenes; read-out: MIC Range): 0.06 to 0.12 µg/mL (≈ 0.164 to 0.328 µM)
- MIC50 (S. pyogenes; S. pyogenes, 21 isolates, read-out: MIC50): 0.06 µg/mL (≈ 0.164 µM)
- MIC90 (C. difficile): 0.25 µg/mL (≈ 0.683 µM)
- MIC (C. difficile; read-out: MIC Range): 0.12 to 0.25 µg/mL (≈ 0.328 to 0.683 µM)
- MIC50 (C. difficile; C. difficile, 10 isolates, read-out: MIC50): 0.25 µg/mL (≈ 0.683 µM)
- MIC50 (Enterobacter spp.): 0.03 µg/mL (≈ 0.082 µM)
- MIC90 (Enterobacter spp.): 0.03 µg/mL (≈ 0.082 µM)
- MIC (Enterobacter spp.; read-out: MIC Range): 0.03 to 0.12 µg/mL (≈ 0.082 to 0.328 µM)
- MIC90 (S. pneumoniae (PenR)): 0.25 µg/mL (≈ 0.683 µM)
- MIC (S. pneumoniae (PenR); read-out: MIC Range): 0.06 to 0.25 µg/mL (≈ 0.164 to 0.683 µM)
- MIC50 (S. pneumoniae (PenR); S. pneumoniae (PenR), 25 isolates, read-out: MIC50): 0.12 µg/mL (≈ 0.328 µM)
- MIC90 (S. pneumoniae (PenS)): 0.12 µg/mL (≈ 0.328 µM)
- MIC50 (S. pneumoniae (PenS); S. pneumoniae (PenS), 20 isolates, read-out: MIC50): 0.06 µg/mL (≈ 0.164 µM)
- MIC (S. pneumoniae (PenS); S. pneumoniae (PenS), 20 isolates, read-out: MIC Range): 0.03 to 0.12 µg/mL (≈ 0.082 to 0.328 µM)
- MIC (S. pneumoniae (CiproR)): 0.12 µg/mL (≈ 0.328 µM)
- MIC (E. faecium (CiproR)): 2 to 8 µg/mL (≈ 5.47 to 21.9 µM)
